Measurements reported in patent US10245275B2 (ViiV HEALTHCARE UK (NO.4) LIMITED, priority 2014, dated 2019).
Read-outs that look alike come from different tables or passages of the source.

Key:
[1] = test system: WT (wild-type HIV virus; recombinant NL4-3 virus); assay: microbe, parasite or virus in culture; type: cell-based, HIV-1
How it was run: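 MT-2 cells infected 4-5 days with NL4-3 carrying Renilla luciferase in place of part of nef (Gag P373S), virus made by 293T transfection, with serial inhibitor dilutions. Antiviral activity read as luciferase activity by a modified dual-luciferase read-out.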

[2] = test system: HIV-1 NL4-3 gag A364V virus; assay: microbe, parasite or virus in culture; type: cell-based
How it was run: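 Recombinant NL4-3 reporter virus with Renilla luciferase replacing part of nef, made by transfection of 293T cells. MT-2 cells infected for 4-5 days with serial inhibitor dilutions; antiviral activity quantified by luciferase activity.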

[3] = Human immunodeficiency virus 1, NL43, MT2, read-out: WT (EC50, uM), Table 1 regular screen, MT-2 cells, luciferase readout
[4] = Human immunodeficiency virus 1, NL43, MT2, read-out: A364V (EC50, uM), Table 1 regular screen, MT-2 cells, luciferase readout
[5] = Human immunodeficiency virus 1, NL43, MT2, read-out: WT (EC50, uM), Table 1 regular screen, class symbol
[6] = Human immunodeficiency virus 1, NL43, MT2, read-out: A364V (EC50, uM), Table 1 regular screen, class symbol

Row | SMILES | EC50 [1, 3] | EC50 [2, 4] | EC50 [1, 5] | EC50 [2, 6]
1 | C=C(C)[C@@H]1CC[C@]2(NCC[C@]3(O)CC[C@@](C)(O)CC3)CC[C@]3(C)[C@H](CC[C@@H]4[C@@]5(C)CC=C(C6=CC[C@](CF)(C(=O)O)CC6)C(C)(C)[C@@H]5CC[C@]43C)[C@@H]12 [Example 2-18, (S)-4-((1R,3aS,5aR,5bR,7aR,11aS,11bR,13aR,13bR)-3a-((2-((cis)-1,4-dihydroxy-4-methylcyclohexyl)ethyl)amino)-5a,5b,8,8,11a-pentamethyl-1-(prop-1-en-2-yl)-2,3,3a,4,5,5a,5b,6,7,7a,8,11,11a,11b,12,13,13a,13b-octadecahydro-1H-cyclopenta[a]chrysen-9-yl)-1-(fluoromethyl)cyclohex-3-enecarboxylic acid] | 0.00165 µM | 0.854 µM | – | –
2 | C=C(C)[C@@H]1CC[C@]2(NCC(=O)N3CCS(=O)(=O)C3)CC[C@]3(C)[C@H](CC[C@@H]4[C@@]5(C)CC=C(C6=CC[C@](CF)(C(=O)O)CC6)C(C)(C)[C@@H]5CC[C@]43C)[C@@H]12 [Example 35, (S)-4-((1R,3aS,5aR,5bR,7aR,11aS,11bR,13aR,13bR)-3a-((2-(1,1-dioxidothiazolidin-3-yl)-2-oxoethyl)amino)-5a,5b,8,8,11a-pentamethyl-1-(prop-1-en-2-yl)-2,3,3a,4,5,5a,5b,6,7,7a,8,11,11a,11b,12,13,13a,13b-octadecahydro-1H-cyclopenta[a]chrysen-9-yl)-1-(fluoromethyl)cyclohex-3-enecarboxylic acid] | 0.00157 µM | 0.157 µM | – | –
3 | C=C(C)[C@@H]1CC[C@]2(NCCCN3CCCC3=O)CC[C@]3(C)[C@H](CC[C@@H]4[C@@]5(C)CC=C(C6=CC[C@](CF)(C(=O)O)CC6)C(C)(C)[C@@H]5CC[C@]43C)[C@@H]12 [Example 21, (S)-1-(fluoromethyl)-4-((1R,3aS,5aR,5bR,7aR,11aS,11bR,13aR,13bR)-5a,5b,8,8,11a-pentamethyl-3a-((3-(2-oxopyrrolidin-1-yl)propyl)amino)-1-(prop-1-en-2-yl)-2,3,3a,4,5,5a,5b,6,7,7a,8,11,11a,11b,12,13,13a,13b-octadecahydro-1H-cyclopenta[a]chrysen-9-yl)cyclohex-3-enecarboxylic acid] | – | – | < 0.05 µM | > 0.05 µM
4 | C=C(C)[C@@H]1CC[C@]2(NCCC(O)(CC)CC)CC[C@]3(C)[C@H](CC[C@@H]4[C@@]5(C)CC=C(C6=CC[C@](CF)(C(=O)O)CC6)C(C)(C)[C@@H]5CC[C@]43C)[C@@H]12 [Example 2-4, (S)-4-((1R,3aS,5aR,5bR,7aR,11aS,11bR,13aR,13bR)-3a-((3-ethyl-3-hydroxypentyl)amino)-5a,5b,8,8,11a-pentamethyl-1-(prop-1-en-2-yl)-2,3,3a,4,5,5a,5b,6,7,7a,8,11,11a,11b,12,13,13a,13b-octadecahydro-1H-cyclopenta[a]chrysen-9-yl)-1-(fluoromethyl)cyclohex-3-enecarboxylic acid] | – | – | < 0.05 µM | > 0.05 µM
5 | C=C(C)[C@@H]1CC[C@]2(NCCN3CCC(C(=O)O)(C(=O)OCC)CC3)CC[C@]3(C)[C@H](CC[C@@H]4[C@@]5(C)CC=C(C6=CC[C@@](CF)(C(=O)O)CC6)C(C)(C)[C@@H]5CC[C@]43C)[C@@H]12 [Example 17] | 0.0194 µM | 3 µM | – | –
6 | C=C(C)[C@@H]1CC[C@]2(CN(CCCN3CCS(=O)(=O)CC3)C(C)=O)CC[C@]3(C)[C@H](CC[C@@H]4[C@@]5(C)CC=C(C6=CC[C@@](CF)(C(=O)O)CC6)C(C)(C)[C@@H]5CC[C@]43C)[C@@H]12 [Example 12, (R)-4-((1R,3aS,5aR,5bR,7aR,11aS,11bR,13aR,13bR)-3a-((N-(3-(1,1-dioxidothiomorpholino)propyl)acetamido)methyl)-5a,5b,8,8,11a-pentamethyl-1-(prop-1-en-2-yl)-2,3,3a,4,5,5a,5b,6,7,7a,8,11,11a,11b,12,13,13a,13b-octadecahydro-1H-cyclopenta[a]chrysen-9-yl)-1-(fluoromethyl)cyclohex-3-enecarboxylic acid] | – | – | < 0.05 µM | > 0.05 µM
7 | C=C(C)[C@@H]1CC[C@]2(NCC(C)(C)O)CC[C@]3(C)[C@H](CC[C@@H]4[C@@]5(C)CC=C(C6=CC[C@](CF)(C(=O)O)CC6)C(C)(C)[C@@H]5CC[C@]43C)[C@@H]12 [Example 2-2, (S)-1-(fluoromethyl)-4-((1R,3aS,5aR,5bR,7aR,11aS,11bR,13aR,13bR)-3a-((2-hydroxy-2-methylpropyl)amino)-5a,5b,8,8,11a-pentamethyl-1-(prop-1-en-2-yl)-2,3,3a,4,5,5a,5b,6,7,7a,8,11,11a,11b,12,13,13a,13b-octadecahydro-1H-cyclopenta[a]chrysen-9-yl)cyclohex-3-enecarboxylic acid] | – | – | < 0.05 µM | > 0.05 µM
8 | C=C(C)[C@@H]1CC[C@]2(NCCN3CCS(=O)(=O)CC(C)C3)CC[C@]3(C)[C@H](CC[C@@H]4[C@@]5(C)CC=C(C6=CC[C@@](CF)(C(=O)O)CC6)C(C)(C)[C@@H]5CC[C@]43C)[C@@H]12 (stereo partly drawn) [Example 26, (1R)-1-(fluoromethyl)-4-((1R,3aS,5aR,5bR,7aR,11aS,11bR,13aR,13bR)-5a,5b,8,8,11a-pentamethyl-3a-((2-(6-methyl-1,1-dioxido-1,4-thiazepan-4-yl)ethyl)amino)-1-(prop-1-en-2-yl)-2,3,3a,4,5,5a,5b,6,7,7a,8,11,11a,11b,12,13,13a,13b-octadecahydro-1H-cyclopenta[a]chrysen-9-yl)cyclohex-3-enecarboxylic acid] | – | – | < 0.05 µM | > 0.05 µM
9 | C=C(C)[C@@H]1CC[C@]2(NCC(=O)N3CCOCC3)CC[C@]3(C)[C@H](CC[C@@H]4[C@@]5(C)CC=C(C6=CC[C@](CF)(C(=O)O)CC6)C(C)(C)[C@@H]5CC[C@]43C)[C@@H]12 [Example 32, (S)-1-(fluoromethyl)-4-((1R,3aS,5aR,5bR,7aR,11aS,11bR,13aR,13bR)-5a,5b, 8,8,11a-pentamethyl-3a-((2-morpholino-2-oxoethyl)amino)-1-(prop-1-en-2-yl)-2,3,3a,4,5,5a,5b,6,7,7a,8,11,11a,11b,12,13,13a,13b-octadecahydro-1H-cyclopenta[a]chrysen-9-yl)cyclohex-3-enecarboxylic acid] | – | – | < 0.05 µM | > 0.05 µM
10 | C=C(C)[C@@H]1CC[C@]2(NCC(=O)N3C[C@@H]4C[C@H]3CS4(=O)=O)CC[C@]3(C)[C@H](CC[C@@H]4[C@@]5(C)CC=C(C6=CC[C@](CF)(C(=O)O)CC6)C(C)(C)[C@@H]5CC[C@]43C)[C@@H]12 [Example 37, (S)-4-((1R,3aS,5aR,5bR,7aR,11aS,11bR,13aR,13bR)-3a-((2-((1S,4S)-2,2-dioxido-2-thia-5-azabicyclo[2.2.1]heptan-5-yl)-2-oxoethyl)amino)-5a,5b,8,8,11a-pentamethyl-1-(prop-1-en-2-yl)-2,3,3a,4,5,5a,5b,6,7,7a,8,11,11a,11 b,12,13,13a,13b-octadecahydro-1H-cyclopenta[a]chrysen-9-yl)-1-(fluoromethyl)cyclohex-3-enecarboxylic acid] | – | – | < 0.05 µM | > 0.05 µM
11 | C=C(C)[C@@H]1CC[C@]2(NCC[C@]3(O)CC[C@](C)(O)CC3)CC[C@]3(C)[C@H](CC[C@@H]4[C@@]5(C)CC=C(C6=CC[C@](CF)(C(=O)O)CC6)C(C)(C)[C@@H]5CC[C@]43C)[C@@H]12 [Example 2-16, (S)-4-((1R,3aS,5aR,5bR,7aR,11aS,11bR,13aR,13bR)-3a-((2-((trans)-1,4-dihydroxy-4-methylcyclohexyl)ethyl)amino)-5a,5b,8,8,11a-pentamethyl-1-(prop-1-en-2-yl)-2,3,3a,4,5,5a,5b,6,7,7a,8,11,11a,11b,12,13,13a,13b-octadecahydro-1H-cyclopenta[a]chrysen-9-yl)-1-(fluoromethyl)cyclohex-3-enecarboxylic acid] | 0.0021 µM | 0.0571 µM | – | –
12 | C=C(C)[C@@H]1CC[C@]2(NC(=O)CC3CCOCC3)CC[C@]3(C)[C@H](CC[C@@H]4[C@@]5(C)CC=C(C6=CC[C@](CF)(C(=O)O)CC6)C(C)(C)[C@@H]5CC[C@]43C)[C@@H]12 [Example 8, (S)-1-(fluoromethyl)-4-((1R,3aS,5aR,5bR,7aR,11aS,11bR,13aR,13bR)-5a,5b,8,8,11a-pentamethyl-1-(prop-1-en-2-yl)-3a-(2-(tetrahydro-2H-pyran-4-yl)acetamido)-2,3,3a,4,5,5a,5b,6,7,7a,8,11,11a,11b,12,13,13a,13b-octadecahydro-1H-cyclopenta[a]chrysen-9-yl)cyclohex-3-enecarboxylic acid] | – | – | > 0.05 µM | > 0.05 µM
